Experimental data from article PMC6934184, “Selective DNA-PKcs inhibition extends the therapeutic index of localized radiotherapy and chemotherapy” (The Journal of Clinical Investigation, 2019).

Target: T1, PKN1 (PRK1) (Homo sapiens, UniProt Q16512)
T1 construct: purchased Thermo Fisher Scientific (Life Technologies) SelectScreen
Experiment: SelectScreen Z'LYTE
Type: biochemical
How it was run: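 NU5455 was profiled across the SelectScreen Broad panel of kinase activity and binding assays. Z'LYTE reactions such as CSF1R ran at apparent Km ATP, while the Adapta CAMK1 assay used ATP listed as 10. Values are given as percent.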

T1 sequence (Q16512 whole entry): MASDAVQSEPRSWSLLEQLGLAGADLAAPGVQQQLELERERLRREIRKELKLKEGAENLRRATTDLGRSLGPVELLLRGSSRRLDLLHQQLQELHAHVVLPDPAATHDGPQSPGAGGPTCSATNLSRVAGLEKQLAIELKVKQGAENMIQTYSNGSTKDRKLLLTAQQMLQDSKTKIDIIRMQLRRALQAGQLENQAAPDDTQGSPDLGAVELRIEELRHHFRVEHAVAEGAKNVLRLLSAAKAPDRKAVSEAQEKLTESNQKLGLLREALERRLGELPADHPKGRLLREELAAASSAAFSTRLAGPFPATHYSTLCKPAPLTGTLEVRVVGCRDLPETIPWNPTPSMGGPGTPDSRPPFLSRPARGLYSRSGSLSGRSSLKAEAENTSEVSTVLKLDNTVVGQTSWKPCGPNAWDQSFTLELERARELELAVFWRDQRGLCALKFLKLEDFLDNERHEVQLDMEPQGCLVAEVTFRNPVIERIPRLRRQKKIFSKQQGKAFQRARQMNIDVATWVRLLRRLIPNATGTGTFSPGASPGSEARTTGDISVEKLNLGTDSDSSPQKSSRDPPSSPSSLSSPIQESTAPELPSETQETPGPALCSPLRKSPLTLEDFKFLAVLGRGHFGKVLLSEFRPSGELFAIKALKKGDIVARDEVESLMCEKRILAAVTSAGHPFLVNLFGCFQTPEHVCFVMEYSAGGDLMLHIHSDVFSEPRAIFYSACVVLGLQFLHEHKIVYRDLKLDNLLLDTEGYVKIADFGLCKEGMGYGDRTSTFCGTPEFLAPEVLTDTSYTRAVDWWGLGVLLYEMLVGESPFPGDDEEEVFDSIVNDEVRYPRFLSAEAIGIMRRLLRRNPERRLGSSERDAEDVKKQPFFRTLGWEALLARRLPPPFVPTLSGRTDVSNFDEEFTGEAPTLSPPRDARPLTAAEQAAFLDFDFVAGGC

Structure (SMILES): CN(C(=O)CN1CCOCC1)c1ccc2sc3c(-c4cccc5c(=O)cc(N6CC7CCC(C6)O7)oc45)cccc3c2c1 [NU5455]
- inhibition at 1 µM: 3.6%
